These are literature values, as cited in US20230364118A1, “RIBITOL TREATMENT” (priority 2020, published 2023).

One may read the half-life as the time needed for the level to fall by half in the phase considered.

The conditions of the series: rabbits; cited from earlier work.

Take `O=C[C@H](O)[C@H](O)[C@H](O)CO` [D-ribose]: the half-life was 14 to 24 min.
